IC50 and inhibition data for 52 molecules are collected here from patent US5585492A, “LTA4 Hydrolase inhibitors” (priority 1994, dated 1996).

For experiment [1], the target named is T1, recombinant human LTA4 hydrolase (Homo sapiens, UniProt P09960).
T1 construct: made in house; host or cells: Spodoptera frugiperda Sf-9 cells, baculovirus (AcNPV) expression vector
T1 sequence (P09960 1-611): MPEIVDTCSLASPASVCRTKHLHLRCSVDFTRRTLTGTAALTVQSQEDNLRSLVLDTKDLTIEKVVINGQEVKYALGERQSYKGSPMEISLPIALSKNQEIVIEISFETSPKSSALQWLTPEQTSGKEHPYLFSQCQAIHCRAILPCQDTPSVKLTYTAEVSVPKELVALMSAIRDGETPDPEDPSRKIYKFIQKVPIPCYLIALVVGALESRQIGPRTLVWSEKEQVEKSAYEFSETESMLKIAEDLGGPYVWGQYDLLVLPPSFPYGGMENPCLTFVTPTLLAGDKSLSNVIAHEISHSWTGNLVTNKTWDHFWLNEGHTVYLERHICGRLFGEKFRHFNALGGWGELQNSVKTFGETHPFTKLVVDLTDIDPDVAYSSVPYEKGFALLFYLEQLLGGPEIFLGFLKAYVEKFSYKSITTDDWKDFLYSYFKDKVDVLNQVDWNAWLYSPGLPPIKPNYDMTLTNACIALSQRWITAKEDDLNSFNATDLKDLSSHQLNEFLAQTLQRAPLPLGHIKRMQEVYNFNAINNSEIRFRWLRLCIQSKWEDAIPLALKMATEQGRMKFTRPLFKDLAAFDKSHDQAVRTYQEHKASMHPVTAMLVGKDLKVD
The experiment can be described thus: Recombinant Human LTA4 Hydrolase Assay for LTA4 Hydrolase Inhibitor Activity (LTB4 by enzyme-linked immunoassay). It is filed as biochemical. The settings on record: for IC50: read-out: Recombinant Human LTA4 Hydrolase Assay IC50 LTA4H. The protocol:
Compounds of the present invention were tested for LTA4 hydrolase inhibitor activity against recombinant human LTA4 hydrolase (rhLTA4 H). […] Briefly, LTA4 hydrolase encoding DNA was amplified by polymerase chain reaction using a pair of oligonucleotide primers based on the nucleotide sequence from the 5'-end, and the complement of the 3'-end, of the coding region of the LTA4 hydrolase gene, the nucleotide sequence of which gene is known. […] A λgtll human placental cDNA library (Clonetech, Palo Alto, Calif.) provided the nucleic acid template.
One or more predetermined amounts of a compound of the invention were incubated in assay buffer (0.1M potassium phosphate, 5 mg/ml fatty acid free BSA, 10% DMSO, pH 7.4) for 10 minutes at room temperature with 250 ng of recombinant hLT4 H to allow binding, if any, between the enzyme and inhibitor. The stock enzyme solution was 1 mg/ml LTA4 hydrolase, 50 mM Tris, pH 8.0, 150 mM NaCl, 2.5 mM beta-mercaptoethanol, 50% glycerol. […] LTA4 (i.e., substrate) was prepared from the methyl ester of LTA4 (Biomol, Inc., Plymouth Meeting, Pa.) by treating the methyl ester with 30 molar equivalents of LiOH at room temperature for 18 hours. The LTA4 substrate in its free acid form was kept frozen at -80° C. until needed. […] Each reaction was carried out at room temperature for 10 minutes. The reaction was stopped by diluting 25 μl of the reaction mixture with 500 μl of the assay buffer without DMSO. LTB4 was quantified in the diluted sample by a commercially available enzyme-linked immunoassay [Caymen Chemical Co., Ann Arbor, Mich.] using the method recommended in the manufacturer's instructions and compared to the amount of LTB4 produced in a negative control (i.e., essentially identical conditions except without addition of an inhibitor compound). The IC50 was routinely calculated from the data produced.

For experiment [2], the system named is LTB4 production in human blood. The experiment can be described thus: Inhibition of Calcium Ionophore-Induced LTB4 Production in Human Blood (HWB). The class given is cell-based. The settings on record: Homo sapiens, read-out: Inhibition of Calcium Ionophore-Induced LTB4 Production in Human Blood IC50 HWB. The protocol: One or more concentrations of the leukotriene A4 hydrolass inhibitor compounds being tested were prepared (diluted in DMSO) and 2 μl added and gently mixed with the diluted whole blood. After incubating for 15 minutes at 37° C. in a humidified incubator, calcium ionophore A23187 (Sigma Chemical Co., St. Louis, Mo.) was added to a final concentration of 20 mcg/ml and the incubation continued under the same conditions for an additional 10 minutes to allow LTB4 formation. The reaction was terminated by centrifugation (833 g, 10 minutes at 4° C.) and supernatant were analyzed for LTB4 and thromboxane by commercially available enzyme-linked immunoassays (Caymen Chemical Co., Ann Arbor, Mich.) according to the manufacturer's instructions. The IC50 of each test compound was determined from the amount of inhibition of LTB4 production as compared to an essentially identical assay in which no inhibitor compound was present.

Where [3] appears, read: human whole blood, A23187 20 mcg/ml.

Counter-ions that a name gives are not always drawn. Like-named read-outs stand apart in the source and are kept apart here.

Take `C(=C\c1ccc(OCCN2CCCC2)cc1)/c1ccccc1` [Example 46]: the results for the IC50 in experiment [1] and in experiment [2] (setting [3]) were 1.35 µM and 1.5 µM, respectively.

Take `O=C(O)c1ccc(-c2ccc(OCCN3CCCC3)cc2)cc1` [Example 63]: in experiment [1], the inhibition – broadly, the relative decrease from the control value, in per cent – at 25 µM came to 40%.

Turning to `O=C(O)c1ccc(Oc2ccc(OCCN3CCCC3)cc2)cc1` [Example 64], the inhibition at 25 µM in experiment [1] was found to be 52%.

Turning to `c1ccc(Cc2ccc(SCCN3CCCC3)cc2)cc1` [Example 68], the IC50 (as a rule, the concentration that inhibits the measured activity by half) in experiment [1] was determined as 0.48 µM.

For the molecule `c1ccc(Cc2cnc(OCCN3CCCC3)s2)cc1` [Example 76], the IC50 in experiment [1] was 2.9 µM; in experiment [2] (setting [3]) it was 3.5 µM.

For `Clc1cc(Cc2ccccc2)ccc1OCCN1CCCC1` [Example 113], the figures for the IC50 in experiment [1] and in experiment [2] (setting [3]) were 1.23 µM and 2.01 µM, respectively.

As for `Fc1cc(Cc2ccccc2)ccc1OCCN1CCCC1` [Example 115], the IC50 in experiment [1] amounted to 0.06 µM; in experiment [2] (setting [3]), 0.19 µM.

As for `c1cc(Cc2ccc(OCCN3CCCC3)cc2)ccn1` [Example 126], the IC50 in experiment [1] worked out at 0.63 µM.

Turning to `COc1cccc(Cc2ccc(OCCN3CCCC3)cc2)c1` [Example 127], the IC50 came to 0.84 µM in experiment [1] and 2.48 µM in experiment [2] (setting [3]).

For the molecule `COc1ccc(Cc2ccc(OCCN3CCCC3)cc2)cc1` [Example 128], the IC50 in experiment [1] was 0.07 µM; in experiment [2] (setting [3]), 0.89 µM.

Regarding `c1coc(Cc2ccc(OCCN3CCCC3)cc2)c1` [Example 135], the IC50 in experiment [1] turned out to be 0.047 µM.

Take `c1cc(Cc2ccc(OCCN3CCCC3)cc2)co1` [Example 136]: the IC50 in experiment [1] is 0.077 µM.

Consider `Clc1ccc(Cc2ccc(OCCN3CCCC3)cc2)cc1` [Example 140], for which the figures for the IC50 in experiment [1] and in experiment [2] (setting [3]) were 0.06 µM and 1.01 µM, respectively.

Take `Cc1nc(COc2ccc(OCCN3CCCC3)cc2)cs1` [Example 202]: the inhibition at 3 µM in experiment [1] was 44%.

In the case of `Clc1cccc(Cl)c1COc1ccc(OCCN2CCCC2)cc1` [Example 204], the inhibition at 25 µM in experiment [1] was found to be 49%.

`Cc1ccccc1COc1ccc(OCCN2CCCC2)cc1` [Example 210]: the inhibition at 25 µM in experiment [1] came out at 4%.

Regarding `COC(=O)[C@@H]1CCCN1CCOc1ccc(Cc2ccccc2)cc1` [Example 225, Methyl 1-[2-[4-(phenylmethyl)phenoxy]ethyl]-2S-pyrrolidine-2-carboxylate, monohydrochloride, hydrate], the IC50 in experiment [1] amounted to 0.45 µM; in experiment [2] (setting [3]), 1.86 µM.

In the case of `NC(=O)C1CCN(CCCOc2ccc(Cc3ccccc3)cc2)CC1` [Example 226, 1-[3-[4-(phenylmethyl)phenoxy]propyl]-4-piperidinecarboxamide], the inhibition at 100 µM in experiment [1] was determined as 4%.

Regarding `CC(=O)NC1CCN(CCOc2ccc(Cc3ccccc3)cc2)C1` (stereo not shown) [Example 227], the IC50 in experiment [1] came out at 0.21 µM; in experiment [2] (setting [3]) it was 0.42 µM.

For `O=C(OCc1ccccc1)[C@@H]1CCCN1CCCOc1ccc(Cc2ccccc2)cc1` [Example 228, Phenylmethyl 1-[3-[4-(phenylmethyl)phenoxy]propyl]-L-prolinate], in experiment [1], the inhibition at 3 µM came out at 28%.

Take `CC(=O)NC1CCN(CCOc2ccc(Cc3ccccc3)cc2)CC1` [Example 238]: the IC50 in experiment [1] came to 0.05 µM; in experiment [2] (setting [3]), 0.18 µM.

Turning to `NC(=O)C1CCN(CCOc2ccc(Cc3ccccc3)cc2)CC1` [Example 239], the IC50 in experiment [1] was 9 µM.

Turning to `NC(=O)C1CCCN(CCCOc2ccc(Cc3ccccc3)cc2)C1` (stereo not shown) [Example 244], in experiment [1], the inhibition at 100 µM turned out to be 15%.

For the molecule `NC(=O)C1CCCN(CCCOc2ccc(Oc3ccccc3)cc2)C1` (stereo not shown) [Example 250], the values for the IC50 in experiment [1] and in experiment [2] (setting [3]) were 4.9 µM and 1.77 µM, respectively.

On to `CC(C)(C)OC(=O)C1CCCN1CCCOc1ccc(Cc2ccccc2)cc1` (stereo not shown) [Example 260], for which the inhibition at 3 µM in experiment [1] was 14%.

Regarding `CCOC(=O)CNCCCOc1ccc(Cc2ccccc2)cc1` [Example 264], the figures for the IC50 in experiment [1] and in experiment [2] (setting [3]) were 3 µM and 1.1 µM, respectively.

As for `CC(C)(C)OC(=O)CCNCCCOc1ccc(Cc2ccccc2)cc1` [Example 268], the inhibition at 3 µM in experiment [1] was determined as 53%. Also, the IC50 in experiment [2] (setting [3]) amounted to 7.98 µM.

With `CCOC(=O)CC(NCCOc1ccc(Cc2ccccc2)cc1)c1cccnc1` (stereo not shown) [Example 271], the values for the IC50 in experiment [1] and in experiment [2] (setting [3]) were 11 µM and 7.98 µM, respectively.

Turning to `COC(=O)C1CCN(CCOc2ccc(Cc3ccccc3)cc2)C1` (stereo not shown) [Example 276], the IC50 in experiment [1] was determined as 4.1 µM; in experiment [2] (setting [3]) it was 0.232 µM.

As for `N#CC1CCN(CCOc2ccc(Cc3ccccc3)cc2)CC1` [Example 279], the IC50 in experiment [1] was 0.47 µM.

Take `CC1(CN2CCCC2)Cc2cc(Cc3ccccc3)ccc2O1` (stereo not shown) [Example 285]: the figures for the IC50 in experiment [1] and in experiment [2] (setting [3]) were 0.13 µM and 1.73 µM, respectively.

As for `CC1(CN2CCC(C(N)=O)CC2)Cc2cc(Cc3ccccc3)ccc2O1` (stereo not shown) [Example 286], the inhibition at 100 µM in experiment [1] worked out at 41%.

For `O=C1CC2CCCC(C1)N2CCOc1ccc(Cc2ccccc2)cc1` [Example 303], the IC50 in experiment [1] was found to be 0.097 µM; in experiment [2] it was 1.65 µM.

Take `CCOC(=O)C1CCN(CCOc2ccc(Cc3cccnc3)cc2)CC1` [Example 311]: the inhibition at 100 µM in experiment [1] worked out at 44%.

In the case of `CCOC(=O)C1CCN(CCOc2ccc(Cc3ccc(F)cc3)cc2)CC1` [Example 312], the inhibition at 100 µM in experiment [1] worked out at 46%.

With `O=C(CNCCOc1ccc(Cc2ccccc2)cc1)OCc1ccccc1` [Example 319], the inhibition at 100 µM in experiment [1] is 47%.

`COC(=O)CCNCCOc1ccc(Cc2ccccc2)cc1` [Example 324]: the IC50 turned out to be 0.22 µM in experiment [1] and 0.586 µM in experiment [2] (setting [3]).

On to `c1ccc(Oc2ccc(OCCCn3cnc4ccccc43)cc2)cc1` [Example 343], for which the inhibition at 3 µM in experiment [1] was found to be 40%.

Consider `c1ccc(COc2ccc(OCCn3cnc4ccccc43)cc2)cc1` [Example 345], for which, in experiment [1], the inhibition at 3 µM was 35%.

In the case of `c1ccc(COc2ccc(OCCn3cnc4cccnc43)cc2)cc1` [Example 346A], the inhibition at 3 µM in experiment [1] came out at 31%.

`Fc1ccc(Oc2ccc(OCCn3cnc4cccnc43)cc2)cc1` [Example 354A]: the inhibition at 3 µM in experiment [1] worked out at 51%.

Regarding `c1ccc(Cc2ccc3c(c2)CC(Cn2nnc4cccnc42)O3)cc1` (stereo not shown) [Example 360A], the inhibition at 100 µM in experiment [1] was 36%.

Turning to `c1ccc(Cc2ccc3c(c2)CC(Cn2nc4cccnc4n2)O3)cc1` (stereo not shown) [Example 360B], the inhibition at 100 µM in experiment [1] came out at 19%.

Regarding `c1ccc(Cc2ccc3c(c2)CC(Cn2nc4ccncc4n2)O3)cc1` (stereo not shown) [Example 361A], the inhibition at 100 µM in experiment [1] worked out at 24%.

As for `c1ccc(Cc2ccc(OCCN3CCCCC3)cc2)cc1` [Example 401], the IC50 in experiment [1] turned out to be 0.055 µM.

For `C#CC(CC(=O)OCC)NCCOc1ccc(Cc2ccccc2)cc1` (stereo not shown) [Example 408], in experiment [1], the inhibition at 100 µM came to 76%.

As for `NC(=S)N1CCN(CCOc2ccc(Cc3ccccc3)cc2)CC1` [Example 458], the IC50 in experiment [2] (setting [3]) amounted to 1.39 µM.

Consider `NCCOc1ccc(Cc2ccccc2)cc1` [Example 496], for which the IC50 in experiment [2] (setting [3]) was 0.28 µM.

Consider `C1=CC2CC1CN2CCOc1ccc(Cc2ccccc2)cc1` (stereo not shown) [Example 497], for which, in experiment [2] (setting [3]), the IC50 came out at 0.216 µM.

Consider `c1ccc(Cc2ccc(OCCN3CC4CCC3C4)cc2)cc1` (stereo not shown) [Example 499], for which the IC50 in experiment [2] (setting [3]) amounted to 0.22 µM.

Turning to `c1ccc(Cc2ccc(OCCN3CC4CCC3CC4)cc2)cc1` [Example 500], the IC50 in experiment [2] (setting [3]) was determined as 0.142 µM.

As for `COC(=O)C1CC2CC1CN(CCOc1ccc(Cc3ccccc3)cc1)C2` (stereo not shown) [Example 504], in experiment [2] (setting [3]), the IC50 stood at 7.7 µM.
